What all share (format): cell-based
The subject of data set [1] is HepG2 cells. Kind of data set: MTT assay, cell viability of HepG2 cells. The method, then: (§1) HepG2 cells (1 × 10^4 cells/well) or RAW264.7 cells ([…]) were incubated in 96T wells for 24 h. Then, HepG2 cells were treated with compounds or Adriamycin for 48 h. In addition, RAW264.7 cells were treated with compounds for 24 h. Then, 0.5% MTT (Sigma, Saint Louis, MO, USA) was added to 20 μL/well for 3.5 h. The supernatant was discarded, and DMSO (150 μL/well) was added to dissolve the purple formazan. Cells were agitated for 15 min at room temperature, and the absorbance at 490 nm was recorded by SpetraMax M2 (Molecular Devices, San Jose, CA, USA).

Data set [2] relates to RAW264.7 cells. As to the kind of experiment: MTT assay, cell viability of RAW264.7 cells. As to conditions: half inhibitory of RAW264.7 cells, 24 h. The method, then: as §1
(§2) RAW264.7 cells (8 × 10^4 cells/well) were incubated in 96T wells with DMEM for 24 h and then treated with compounds and LPS (1 μg/mL) for 24 h; this included the control group and LPS group. Then, the cell supernatant was collected for nitric oxide production assay. Next, 100 uL/well PBS was added to 96T wells, then 0.5% MTT (Sigma, Saint Louis, MO, USA) was added to 20 μL/well for 3.5 h. DMSO (150 μL/well) was added to dissolve the purple formazan. Cells were agitated for 15 min at room temperature, and the absorbance at 490 nm was recorded by SpetraMax M2 (Molecular Devices, San Jose, CA, USA). The NO inhibition rate (%) = (ODLPS group − ODcompound group)/(ODLPS group-ODcontrol group) × 100%. The IC50 value refers to the inhibitory of nitric oxide production of LPS-stimulated RAW264.7 cells. Then, 70 uL of each cell supernatant sample was added into a new 96T plate, and Griess A and Griess B were added separately. Then, the absorbance value at 540 nm was detected and then brought into the standard curve to assay the concentration of NO. The cell survival rate (%) = (ODcompound group − ODblank group)/(ODcontrol group − ODblank group) × 100%. The half concentration of the cell death (CC50) value refers to the concentration of compound 5 when 50% of RAW264.7 cells die. The iNOS inhibitor ([…], L-NMMA) was selected as the positive control. The levels of cytokines (IL-1β, IFN-γ, IL-10, TNF-α, and IL-6) in the cell supernatant were determined using an ELISA kit (Novus Biologicals, Shanghai, China, Lot: 834472, 770118, 772051, 486956, 602865). When the process was conducted according to the manufacturer’s instructions, the absorbance was read at 450 nm/570 nm in a SpectraMax 340PC microplate spectrophotometer (Molecular Devices, San Jose, CA, USA).

Data set [3] concerns NO production of LPS-stimulated RAW264.7 cells. Kind of data set: Nitric oxide production in LPS-stimulated RAW264.7 cells (Griess). As to conditions: LPS (1 μg/mL)-stimulated RAW264.7 cells, 24 h, read-out: RAW264.7 IC50 (inhibition of nitric oxide production). Here is the method:
as §2

The nature of data set [4]: MTT assay, cell viability of RAW264.7 cells. Particulars: mouse, half inhibitory of RAW264.7 cells. Here is the method:
as §1, §2

For data set [5], the target named is ATP1A1 (Homo sapiens, UniProt P05023). As to the kind of experiment: ATP1A1 level and location in HepG2 cells (western blot, fluorescence staining, lysosomal colocalization). Set-up: we focused on the regulatory effect of 5 on ATP1A1 in HepG2 cells; endogenous in cells; host or cells: HepG2. As to conditions: HepG2; 5 25 μmol∙L−1, digitonin 10, MK 2206 40, FR 180204 200 nmol∙L−1; western blot. Here is the method: HepG2 cells (4 × 10^5 cells/well) were incubated in confocal dishes with DMEM for 24 h and then treated with compounds for 48 h. Then, the cells were treated with 0.1% Triton X-100 for 10 min and washed with PBS five times. Finally, the cells were dyed with anti-ATP1A1 at 4 °C overnight. Nuclear staining with DAPI (1 μg∙mL^−1) was added for 7 min in the dark, and the cells were washed. The stained images were captured under a laser scanning confocal microscope (Nikon A1 AIR MP+, Tokyo, Japan). HepG2 cells (5 × 10^5 cells/well) were incubated in 6-well plates in complete DMEM. Cells were treated with compounds for 24 h. Then, the cells were stained with Annexin V/PI for 30 min at 4 °C in the dark, and apoptosis analysis was carried out by laser scanning confocal microscopy.
Protein samples were prepared using a RIPA lysis buffer. The concentration of the protein was analyzed using a nucleic acid and protein microanalyzer (Molecular Devices, San Jose, CA, USA). SDS–PAGE was performed to separate the proteins, which were then electrotransferred onto a PVDF membrane. The membrane was incubated with antibodies at 4 °C overnight. Next, the membrane was washed and incubated with an HRP-conjugated secondary antibody (Beyotime, BeiJing, China). Finally, signals were detected by the ECL method (Beyotime, BeiJing, China) and analyzed using ImageJ software.

Data set [6] has as its system Huh-7 cells. As to the kind of experiment: MTT assay, cell viability of Huh-7 cells. As to conditions: Homo sapiens, Huh-7; MTT; read-out: Huh-7 IC50. The text has this: 2. The anti-proliferation of compound 5 on Huh-7 cells
We tested another hepatoma cell line (Huh-7) to validate effect of compound 5. L02 (normal hepatocytes), HepG2 and Hub-7 cells were used to discuss the effect of 5. […]
of 5 on Huh-7 cell was (24.49±[…]) μM (Table S1). The morphology and apoptosis of the cells by reversed microscope and flow cytometry, respectively.
Second, the expression and phosphorylation of ATP1A1 were detected by Western blot analysis in L02, HepG2 and Huh-7 cells. Compared with L02 group, the expression of ATP1A1 was higher in HepG2 and Huh-7 cells, but there was no significant difference in the phosphorylation of ATP1A1 (Figure […]
At last, the effect of 5 on the expression and the phosphorylation of ATP1A1 in Huh-7 cells was […]
the phosphorylation of ATP1A1. The result was consistent with that observed in HepG2 cells (Figure […]
Table S1 Cell viability of Huh-7 cell treated by compound 5

Where two headings read alike, the source gives them in different places.

On to “Kidjoranin-3-O-β-D-cymaropyranoside [Compound 6]”, for which the IC50 in data set [1] (48 h) amounted to 27.3 ± 3.48 µM; in data set [3], 3.32 ± 0.43 µM. This molecule also yielded a CC50 in data set [2] of 35.2 ± 5.12 µM.

As to Cynotophylloside J [Compound 8], the values for the IC50 in data set [1] (48 h) and in data set [3] were over 50 µM and 17.4 ± 3.01 µM, respectively. Further, the CC50 in data set [2] is over 50 µM.

On to Eupokanu G [Compound 1], for which the results for the concentration for half-maximal inhibition (IC50) in data set [1] (48 h) and in data set [3] were 46.4 ± 3.09 µM and over 50 µM, respectively. The molecule further came in with a CC50 in data set [2] of over 50 µM.

On to `CC(=O)[C@]1(O)CC[C@@]2(O)[C@]1(C)[C@H](OC(=O)/C=C/c1ccccc1)C[C@@H]1[C@@]3(C)CC[C@H](O)CC3=CC[C@]12O` [Compound 4, Kidjolanin], for which the IC50 in data set [1] (48 h) was over 50 µM; in data set [3] it was 30.7 ± 4.08 µM. Besides, the CC50 in data set [2] was over 50 µM.

Molecule `[H]/N=C(/NC)NCCC[C@H](N)C(=O)O` [L-NMMA, NG-monnomycin-L-arginine, reference compound] came in with a CC50 at 24 h in data set [4] of over 50 µM. Moreover, the IC50 in data set [3] (Mus musculus) is 21.2 ± 3.26 µM.

Take “Kidjoranin 3-O-α-diginopyranosyl-(1→4)-β-cymaropyranoside [Compound 10]”: the figures for the IC50 in data set [1] (48 h) and in data set [3] were 22.7 ± 4.02 µM and 2.78 ± 0.44 µM, respectively. In data set [2], the half-maximal cytotoxic concentration (CC50) turned out to be 24.1 ± 3.24 µM.

With “Caudatin 3-O-β-D-digitoxopyranoside [Compound 12]”, the IC50 in data set [1] (48 h) and in data set [3] was over 50 µM throughout. The CC50 in data set [2] was over 50 µM.

In the case of `C[C@@H]1CC[C@@]2(OC1)O[C@H]1[C@@H](O)[C@H]3[C@@H]4CC[C@H]5C[C@@H](O[C@@H]6O[C@H](CO)[C@H](O[C@@H]7O[C@H](CO)[C@@H](O)[C@H](O[C@@H]8OC[C@@H](O)[C@H](O)[C@H]8O)[C@H]7O[C@@H]7O[C@H](CO)[C@H](O)[C@H](O[C@@H]8O[C@H](CO)[C@@H](O)[C@H](O)[C@H]8O)[C@H]7O)[C@H](O)[C@H]6O)[C@H](O)C[C@]5(C)[C@H]4CC[C@]3(C)[C@H]1[C@@H]2C` [digitonin, reference compound], the “expression of ATP1A1 (comparison with inhibitors)” value in data set [5] was “not similarly observed”.

For the molecule `NC1(c2ccc(-c3nc4ccn5c(=O)[nH]nc5c4cc3-c3ccccc3)cc2)CCC1` [MK 2206, reference compound], the “expression of ATP1A1 (comparison with inhibitors)” value in data set [5] was “not similarly observed”.

`COc1cccc2c1C(=O)c1c(O)c3c(c(O)c1C2=O)C[C@@](O)(C(=O)CO)C[C@@H]3O[C@H]1C[C@H](N)[C@H](O)[C@H](C)O1` [Adr, adriamycin, reference compound]: the IC50 in data set [1] (Homo sapiens, HepG2, 48 h) was determined as 6.93 ± 1.23 µM; in data set [1] (Homo sapiens, HepG2, fractions A–E, 48 h) it was 5.98 ± 2.06 µg/mL; in data set [6], 4.49 ± 0.96 µM.

In the case of `CO[C@H]1C[C@@H](O[C@H]2[C@H](C)O[C@H](O[C@H]3[C@@H](C)O[C@H](O[C@H]4[C@@H](OC)C[C@H](O[C@@H]5CC[C@]6(C)C(=CCC(=O)[C@H]6C[C@H](OC(=O)/C=C/c6ccccc6)[C@]6(C)C(=O)CC[C@]6(O)[C@@H](C)OC(C)=O)C5)O[C@@H]4C)C[C@H]3OC)C[C@H]2OC)O[C@H](C)[C@H]1O` [Compound 7, Wilfoside G], the IC50 amounted to 12.6 ± 2.98 µM in data set [1] (48 h) and 1.77 ± 0.34 µM in data set [3]. Further, the CC50 in data set [2] was 26.2 ± 2.22 µM.

Cynotophylloside B [Compound 2]: the figures for the IC50 in data set [1] (48 h) and in data set [3] were 41.1 ± 6.05 µM and 9.1 ± 2.27 µM, respectively. The CC50 in data set [2] is over 50 µM.

In the case of `Nc1[nH]nc2nnc(-c3c(-c4ccccc4)nn4ccccc34)cc12` [FR 180204, reference compound], the “expression of ATP1A1 (comparison with inhibitors)” value in data set [5] was “not similarly observed”.

As to `CC(=O)[C@]1(O)CC[C@@]2(O)[C@]1(C)[C@H](O)C[C@@H]1[C@@]3(C)CC[C@H](O)CC3=CC[C@]12O` [Compound 3, Deacylmetaplexigenin], the IC50 in data set [1] (48 h) and in data set [3] was over 50 µM throughout. Moreover, the CC50 in data set [2] is over 50 µM.

Take “Kidjoranin 3-O-β-digitoxopyranoside [Compound 11]”: the 50% inhibitory concentration (IC50) in data set [1] (48 h) and in data set [3] was over 50 µM throughout. Further, the cytotoxic concentration (CC50) in data set [2] was over 50 µM.

As for `CC1(C)CC[C@]2(C(=O)O)CC[C@]3(C)C(=CC[C@@H]4[C@@]5(C)C[C@@H](O)[C@H](O)C(C)(C)[C@@H]5CC[C@]43C)[C@@H]2C1` [Compound 9, Maslinic acid], the IC50 in data set [1] (Homo sapiens, HepG2, 48 h) was over 50 µM; in data set [3] (Mus musculus), 17.4 ± 2.21 µM. The molecule further displayed a CC50 at 24 h in data set [4] of over 50 µM.

The values above are taken from PMC10058894, “Bioactive C21 Steroidal Glycosides from Euphorbia kansui Promoted HepG2 Cell Apoptosis via the Degradation of ATP1A1 and Inhibited Macrophage Polarization under Co-Cultivation” (Molecules, 2023).
